Measurements taken from PubChem BioAssay (NCI).
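Compound exposure: 48 hours, 5 concentrations, 96-well plates. The concentration for 50% growth inhibition is given as GI50. TGI marks complete inhibition of growth.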

Tests used:
Test in all cases: DTP human tumour cell line panel, 48 h
786-0 renal = tested on: 786-0 renal
CCRF-CEM leukemia = tested on: CCRF-CEM leukemia
HCC-2998 colon = tested on: HCC-2998 colon
IGROV1 ovarian = tested on: IGROV1 ovarian
MCF7 breast = tested on: MCF7 breast
MDA-MB-231 breast = tested on: MDA-MB-231 breast
NCI/ADR-RES ovarian = tested on: NCI/ADR-RES ovarian
OVCAR-8 ovarian = tested on: OVCAR-8 ovarian
SNB-19 CNS = tested on: SNB-19 CNS
UACC-257 melanoma = tested on: UACC-257 melanoma

SMILES	GI50 (786-0 renal)	TGI (786-0 renal)	GI50 (CCRF-CEM leukemia)	TGI (CCRF-CEM leukemia)	GI50 (HCC-2998 colon)	TGI (HCC-2998 colon)	GI50 (IGROV1 ovarian)	TGI (IGROV1 ovarian)	GI50 (MCF7 breast)	TGI (MCF7 breast)	GI50 (MDA-MB-231 breast)	TGI (MDA-MB-231 breast)	GI50 (NCI/ADR-RES ovarian)	TGI (NCI/ADR-RES ovarian)	GI50 (OVCAR-8 ovarian)	TGI (OVCAR-8 ovarian)	GI50 (SNB-19 CNS)	TGI (SNB-19 CNS)	GI50 (UACC-257 melanoma)	TGI (UACC-257 melanoma)
Cc1ccc(Sc2cc3c(oc2=O)-c2ccccc2OC3O)cc1 (stereo not given)	24.3 µM	51.6 µM	6.73 µM	78.5 µM	20.3 µM	36.6 µM	22.4 µM	49.2 µM	35.9 µM	> 100 µM	28.8 µM	71.2 µM	25.2 µM	60.5 µM	27.8 µM	71.3 µM	25 µM	62.1 µM	22.3 µM	43.8 µM
O=C1C(Cl)=C(Nc2cccc(C(F)(F)F)c2)C(=O)N1Cc1ccc(Cl)cc1	< 0.0324 µM	13.5 µM	0.59 µM	> 100 µM	0.835 µM	18.8 µM	2.76 µM	> 48.5 µM		4.82 µM	0.207 µM	8.74 µM	< 0.0431 µM	12.3 µM	0.699 µM	23.3 µM	6.37 µM	24.1 µM	6.59 µM	22.2 µM
CCN(c1cc(C#CCN2CCOCC2)cc(C(=O)NCc2c(C)cc(C)[nH]c2=O)c1C)C1CCC(N(C)CCOC)CC1 (stereo not given)	> 100 µM	> 100 µM	> 100 µM	> 100 µM	> 100 µM	> 100 µM	> 100 µM	> 100 µM	> 100 µM	> 100 µM	> 100 µM	> 100 µM	> 100 µM	> 100 µM	> 100 µM	> 100 µM	> 100 µM	> 100 µM	> 100 µM	> 100 µM
CCCCCCCCCCCCCCCCCC(=O)Nc1ccn(C2OC(CO)C(O)C2O)c(=O)n1 (stereo not given)		> 100 µM		26.2 µM		> 100 µM		> 100 µM		> 100 µM		> 100 µM		> 100 µM		> 84.8 µM		69.7 µM		> 100 µM
CC#Cc1nc(Nc2cc(C)[nH]n2)c2ccccc2n1	5.86 µM	29 µM	4.6 µM	> 100 µM	2.43 µM	5.48 µM	2.58 µM	15.4 µM	3.32 µM	95.7 µM	2.85 µM	9.34 µM	6.63 µM	> 100 µM	5.05 µM	37.3 µM	19.8 µM	50.7 µM	5.52 µM	20.9 µM
O=c1oc2c(C(F)(F)F)cccc2cc1-c1csc(Nc2ccc(OCCF)cc2)n1	0.0611 µM		0.0353 µM	> 69.2 µM	0.0423 µM	> 100 µM	0.0757 µM	> 37 µM	0.0427 µM	> 37.6 µM	0.0663 µM	> 35.9 µM	0.0401 µM	66.5 µM	0.0393 µM	7.66 µM	0.0873 µM	> 56.4 µM	0.653 µM	> 100 µM
CC1=NN(c2nc(N)nc(/C=C\c3ccc([N+](=O)[O-])s3)n2)C(C)(C)C1	> 100 µM	> 100 µM	77.5 µM	> 100 µM	> 100 µM	> 100 µM	> 100 µM	> 100 µM	> 100 µM	> 100 µM	> 100 µM	> 100 µM	> 100 µM	> 100 µM	> 100 µM	> 100 µM	> 100 µM	> 100 µM	> 100 µM	> 100 µM
CC(C)(C)c1ccc(NS(=O)(=O)c2ccc3nc(NC(=O)c4cnccn4)[nH]c3c2)cc1	3.35 µM	14.8 µM	3.2 µM	> 100 µM	5.19 µM	18.9 µM	1.49 µM	13.9 µM	0.715 µM	13.4 µM	4.34 µM	17.1 µM	1.92 µM	8.59 µM	5.78 µM	38.8 µM	3.31 µM	18.3 µM	10.8 µM	26 µM
COc1ccc(Cn2cc3c(c2-c2cc(OC)c(OC)c(OC)c2)CCc2cnoc2-3)cc1	0.575 µM	> 100 µM	0.291 µM	> 24.3 µM	0.557 µM	> 100 µM	0.394 µM	> 100 µM	0.163 µM	> 100 µM	0.735 µM	> 100 µM	0.242 µM	> 100 µM	0.485 µM	> 100 µM	0.502 µM	> 100 µM		> 100 µM
CC(=O)c1cc(O)c2ccccc2c1O	20 µM	35.2 µM	19.2 µM	> 100 µM	19.9 µM	37.1 µM	13 µM	29.3 µM	14.8 µM	36.9 µM	15.2 µM	36.2 µM	24.5 µM	67.5 µM	20.2 µM	38.6 µM	46 µM	> 100 µM	17.7 µM	34.1 µM
Nc1ncc(-c2cccc(S(N)(=O)=O)c2)c2scc(-c3ccc(F)c(Cl)c3)c12	6.02 µM	17 µM	6.12 µM	> 22.2 µM	6.7 µM	13.3 µM	6.58 µM	22.3 µM	5.93 µM	15.9 µM	5.94 µM	> 25 µM	7.14 µM	> 25 µM	6.38 µM	> 22.6 µM	10.6 µM	> 25 µM	6.46 µM	17.2 µM
C=CC(COC(c1ccccc1)(c1ccccc1)c1ccccc1)N(CC)CC (stereo not given)	11.4 µM	27.7 µM	3.76 µM	14.8 µM	4.28 µM	16.4 µM	5.09 µM	20.1 µM	2.8 µM	7.21 µM	3.35 µM	13.5 µM	3.88 µM	18.2 µM	5.87 µM	20.1 µM	10.1 µM	25.3 µM	2.27 µM	6.32 µM
CCCCCCCCCCCCCCCC1=NC(C)(C)CN1C(C)C	1.59 µM	2.94 µM	1.41 µM	3.47 µM	1.35 µM	2.64 µM	1.12 µM	2.41 µM	1.55 µM	3.01 µM	1.61 µM	3.1 µM	1.78 µM	4.33 µM	1.72 µM	3.58 µM	2.04 µM	5.02 µM	1.77 µM	3.31 µM
CC(=O)c1nc2ccccc2n1CC(=O)c1cccc(Cl)c1	0.886 µM	> 41.4 µM	1.17 µM	> 26.2 µM	1.5 µM		0.543 µM	> 100 µM	0.335 µM	> 100 µM	1.07 µM	> 100 µM	0.231 µM		0.873 µM	> 100 µM	0.808 µM	> 100 µM	1.69 µM	> 100 µM
Cc1c([N+](=O)[O-])oc2ccc3ccccc3c12		> 100 µM		> 100 µM		> 100 µM		> 100 µM		93.7 µM		> 100 µM		> 100 µM		> 100 µM		> 100 µM		> 100 µM
C=C1C(=O)O[C@H]2[C@H]1CC/C(COC(=O)NCc1ccc(Cn3c(=O)sn(-c4ccccc4)c3=O)cc1)=C\CC[C@@]1(C)O[C@@H]21	1.81 µM	3.37 µM	0.833 µM	> 100 µM	1.99 µM	3.82 µM	2.09 µM	4.2 µM	1.59 µM	3.55 µM	1.71 µM	3.52 µM	19.1 µM	63.3 µM	2.83 µM	8.55 µM	4.26 µM	16.1 µM	1.86 µM	4.14 µM
Cc1cc(I)cc(CN(C)CCCN2CCN(C)CC2)c1O	18.6 µM	> 54.2 µM	45.7 µM	> 100 µM	24.7 µM	56.8 µM	40.5 µM	> 100 µM	26 µM	82.7 µM	24.1 µM	> 68.3 µM	77.8 µM	> 100 µM	80.8 µM	> 100 µM	> 100 µM	> 100 µM	35 µM	> 57.5 µM
O=C(CCc1ccc(O)cc1)N/N=C/c1cc(Br)ccc1O	3.73 µM	70.7 µM	2.5 µM	12.6 µM	7.12 µM	96.9 µM	6.23 µM	93.3 µM	3.31 µM	90.2 µM	4.45 µM	53.6 µM	2.34 µM	> 100 µM	3.7 µM	> 100 µM	6.51 µM	> 100 µM	2.62 µM	11.4 µM
CC1(C)C(=O)/C(=C\c2cccnc2)C[C@]2(C)[C@H]3CC[C@@H]4[C@@H](C(=O)/C=C/c5ccncc5)CC[C@@]4(C)[C@]3(C)CC[C@@H]12	1.85 µM	3.41 µM	1.79 µM	8.53 µM	2.1 µM	3.84 µM	2.03 µM	4.05 µM	0.804 µM	4.62 µM	2.96 µM	9.94 µM	2.28 µM	7.12 µM	2.34 µM	10.3 µM	1.66 µM	3.22 µM	1.8 µM	4.44 µM
